Assay results taken from ChEMBL document CHEMBL1135793 (J Med Chem, 2002).
pIC50: −log10 of the molar value. Positions of bridges follow the written chain, without caps; N, C: chain ends. Non-standard residues stand in square brackets, D forms with d. Residues, ends and D or L forms follow the SMILES beside them. Nle = CCCC[C@H](N)C(=O)O

Biological target: Urokinase plasminogen activator surface receptor (Homo sapiens, UniProt Q03405)
Assay: Inhibitory activity against human Urokinase plasminogen activator receptor (uPAR) was determined

Sequence of Urokinase plasminogen activator surface receptor (Q03405 whole entry): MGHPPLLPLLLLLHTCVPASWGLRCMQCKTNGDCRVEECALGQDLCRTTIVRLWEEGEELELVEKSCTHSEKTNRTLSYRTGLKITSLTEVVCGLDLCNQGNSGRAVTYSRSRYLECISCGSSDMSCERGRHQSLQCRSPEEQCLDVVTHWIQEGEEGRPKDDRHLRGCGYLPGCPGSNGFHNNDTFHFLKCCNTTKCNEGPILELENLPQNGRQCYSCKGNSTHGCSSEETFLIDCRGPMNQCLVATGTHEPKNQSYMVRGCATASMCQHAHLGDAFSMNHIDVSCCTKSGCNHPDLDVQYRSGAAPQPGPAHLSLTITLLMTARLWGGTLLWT

Compound | pIC50
CC[C@H](C)[C@@H]1NC(=O)[C@H](CC(N)=O)NC(=O)[C@H](CO)NC(=O)[C@H](Cc2ccccc2)NC(=O)[C@H](Cc2ccc3ccccc3c2)NC(=O)[C@H](CCCCN)NC(=O)[C@H](CC(N)=O)NC(=O)[C@H](N)CSSC[C@@H](C(=O)N[C@@H](Cc2c[nH]c3ccccc23)C(=O)O)NC1=O | 7.10
CCCC[C@@H]1NC(=O)[C@H](CC(N)=O)NC(=O)[C@H](N)CSSC[C@@H](C(=O)N[C@@H](Cc2c[nH]c3ccccc23)C(=O)O)NC(=O)[C@H]([C@@H](C)CC)NC(=O)[C@H](CC(N)=O)NC(=O)[C@H](CO)NC(=O)[C@H](Cc2ccccc2)NC(=O)[C@H](Cc2ccc(O)cc2)NC1=O (H-[dC]N[Nle]YFSNICW-OH; disulfide 1-9) | 7.22
CC[C@H](C)[C@@H]1NC(=O)[C@H](CC(N)=O)NC(=O)[C@H](CO)NC(=O)[C@H](Cc2ccccc2)NC(=O)[C@H](Cc2ccc(O)cc2)NC(=O)[C@H](CCCCN)NC(=O)[C@H](CC(N)=O)NC(=O)[C@H](CO)NC(=O)[C@H](C(C)C)NC(=O)[C@H](N)CSSC[C@@H](C(=O)O)NC(=O)[C@H](Cc2c[nH]c3ccccc23)NC(=O)[C@H](Cc2c[nH]cn2)NC1=O | 6.70
CC[C@H](C)[C@@H]1NC(=O)[C@H](CC(N)=O)NC(=O)[C@H](CO)NC(=O)[C@H](Cc2ccccc2)NC(=O)[C@H](Cc2ccc(O)cc2)NC(=O)[C@H](CCCCN)NC(=O)[C@H](CC(N)=O)NC(=O)[C@@H](N)CSSC[C@@H](C(=O)N[C@@H](Cc2c[nH]c3ccccc23)C(=O)O)NC1=O | 6.05
CC[C@H](C)[C@@H]1NC(=O)[C@H](CC(N)=O)NC(=O)[C@H](CO)NC(=O)[C@H](Cc2ccccc2)NC(=O)[C@H](Cc2cccc3ccccc23)NC(=O)[C@H](CCCCN)NC(=O)[C@H](CC(N)=O)NC(=O)[C@H](N)CSSC[C@@H](C(=O)N[C@@H](Cc2c[nH]c3ccccc23)C(=O)O)NC1=O | 7.30
CC[C@H](C)[C@@H]1NC(=O)[C@H](CC(N)=O)NC(=O)[C@H](CO)NC(=O)[C@H](Cc2ccccc2)NC(=O)[C@H](Cc2ccc(O)cc2)NC(=O)[C@H](CCCCN)NC(=O)[C@@H](CC(N)=O)NC(=O)[C@@H](N)CSSC[C@@H](C(=O)N[C@@H](Cc2c[nH]c3ccccc23)C(=O)O)NC1=O | < 4.52
CC[C@H](C)[C@@H]1NC(=O)[C@H](CC(N)=O)NC(=O)[C@H](CO)NC(=O)[C@H](Cc2ccccc2)NC(=O)[C@H](Cc2ccc(O)cc2)NC(=O)[C@H](CCCCN)NC(=O)[C@H](CC(N)=O)NC(=O)[C@H](CO)NC(=O)[C@H](C(C)C)NC(=O)[C@@H](N)CSSC[C@@H](C(=O)O)NC(=O)[C@H](Cc2c[nH]c3ccccc23)NC(=O)[C@H](Cc2c[nH]cn2)NC1=O | 6.15

Other lines, results leading:

pIC50 | Compound
< 4.52 | CC[C@H](C)[C@@H]1NC(=O)[C@@H](CC(N)=O)NC(=O)[C@H](CO)NC(=O)[C@H](Cc2ccccc2)NC(=O)[C@H](Cc2ccc(O)cc2)NC(=O)[C@H](CCCCN)NC(=O)[C@H](CC(N)=O)NC(=O)[C@@H](N)CSSC[C@@H](C(=O)N[C@@H](Cc2c[nH]c3ccccc23)C(=O)O)NC1=O
7.40 | CC[C@H](C)[C@@H]1NC(=O)[C@H](CC(N)=O)NC(=O)[C@H](CO)NC(=O)[C@H](Cc2ccccc2)NC(=O)[C@H](Cc2ccc(O)cc2)NC(=O)[C@H](CCCCN)NC(=O)[C@H](CC(N)=O)NC(=O)[C@H](N)CSSC[C@@H](C(=O)N[C@@H](Cc2c[nH]c3ccccc23)C(=O)O)NC1=O
< 4.52 | CC[C@H](C)[C@@H]1NC(=O)[C@H](CC(N)=O)NC(=O)[C@@H](CO)NC(=O)[C@H](Cc2ccccc2)NC(=O)[C@H](Cc2ccc(O)cc2)NC(=O)[C@H](CCCCN)NC(=O)[C@H](CC(N)=O)NC(=O)[C@@H](N)CSSC[C@@H](C(=O)N[C@@H](Cc2c[nH]c3ccccc23)C(=O)O)NC1=O
< 4.52 | CC[C@H](C)[C@@H]1NC(=O)[C@H](CC(N)=O)NC(=O)[C@H](CO)NC(=O)[C@H](Cc2ccccc2)NC(=O)[C@H](Cc2ccc(O)cc2)NC(=O)[C@@H](CCCCN)NC(=O)[C@H](CC(N)=O)NC(=O)[C@@H](N)CSSC[C@@H](C(=O)N[C@@H](Cc2c[nH]c3ccccc23)C(=O)O)NC1=O
